Legend:
AXL = target: T1, AXL (Homo sapiens, UniProt P30530); assay: Kinase panel profiling at 1 µmol/L (mobility shift assay, Carna); assay type: biochemical; settings: 1 µmol/L of BTK inhibitor
T1 construct: purchased Carna Biosciences
T1 sequence (P30530 26-894): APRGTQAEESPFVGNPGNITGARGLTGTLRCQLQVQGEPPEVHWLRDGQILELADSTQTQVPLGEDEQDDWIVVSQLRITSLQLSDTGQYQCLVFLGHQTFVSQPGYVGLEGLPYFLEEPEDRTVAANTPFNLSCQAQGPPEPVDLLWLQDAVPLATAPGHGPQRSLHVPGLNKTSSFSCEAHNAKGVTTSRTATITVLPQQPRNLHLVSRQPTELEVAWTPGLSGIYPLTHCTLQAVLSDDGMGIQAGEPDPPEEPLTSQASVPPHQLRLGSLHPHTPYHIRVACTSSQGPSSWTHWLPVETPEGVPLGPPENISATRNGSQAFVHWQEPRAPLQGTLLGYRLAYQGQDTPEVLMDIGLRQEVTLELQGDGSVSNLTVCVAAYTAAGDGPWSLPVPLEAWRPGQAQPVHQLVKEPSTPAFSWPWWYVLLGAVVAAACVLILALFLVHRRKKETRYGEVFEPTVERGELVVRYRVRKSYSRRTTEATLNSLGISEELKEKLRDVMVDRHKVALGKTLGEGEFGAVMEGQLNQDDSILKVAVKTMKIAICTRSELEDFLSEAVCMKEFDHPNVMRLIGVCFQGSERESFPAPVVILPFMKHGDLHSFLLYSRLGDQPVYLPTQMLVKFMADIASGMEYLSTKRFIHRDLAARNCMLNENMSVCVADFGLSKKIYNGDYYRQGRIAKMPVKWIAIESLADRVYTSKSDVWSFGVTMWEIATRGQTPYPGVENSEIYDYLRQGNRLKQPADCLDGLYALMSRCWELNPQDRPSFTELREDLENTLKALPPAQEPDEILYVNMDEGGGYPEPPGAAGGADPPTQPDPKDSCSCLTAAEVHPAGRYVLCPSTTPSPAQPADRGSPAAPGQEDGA

EPHA7 = target: T2, EPHA7 (Homo sapiens, UniProt Q15375); assay: as above; assay type: biochemical; settings: 1 µmol/L of BTK inhibitor
T2 construct: purchased Carna Biosciences

CaMK2α = target: T3, CaMK2α (Homo sapiens, UniProt Q9UQM7); assay: as above; assay type: biochemical; settings: 1 µmol/L of BTK inhibitor
T3 construct: purchased Carna Biosciences

CK1α = target: T4, CK1α (Homo sapiens, UniProt P48729); assay: as above; assay type: biochemical; settings: 1 µmol/L of BTK inhibitor
T4 construct: purchased Carna Biosciences

DYRK1A = target: T5, DYRK1A (Homo sapiens, UniProt Q13627); assay: as above; assay type: biochemical; settings: 1 µmol/L of BTK inhibitor
T5 construct: purchased Carna Biosciences

NDR2 = target: T6, NDR2 (Homo sapiens, UniProt Q9Y2H1); assay: as above; assay type: biochemical; settings: 1 µmol/L of BTK inhibitor
T6 construct: purchased Carna Biosciences

PIM2 = target: T7, PIM2 (Homo sapiens, UniProt Q9P1W9); assay: as above; assay type: biochemical; settings: 1 µmol/L of BTK inhibitor
T7 construct: purchased Carna Biosciences

PKCζ = target: T8, PKCζ (Homo sapiens, UniProt Q05513); assay: as above; assay type: biochemical; settings: 1 µmol/L of BTK inhibitor
T8 construct: purchased Carna Biosciences
T8 sequence (Q05513 1-592): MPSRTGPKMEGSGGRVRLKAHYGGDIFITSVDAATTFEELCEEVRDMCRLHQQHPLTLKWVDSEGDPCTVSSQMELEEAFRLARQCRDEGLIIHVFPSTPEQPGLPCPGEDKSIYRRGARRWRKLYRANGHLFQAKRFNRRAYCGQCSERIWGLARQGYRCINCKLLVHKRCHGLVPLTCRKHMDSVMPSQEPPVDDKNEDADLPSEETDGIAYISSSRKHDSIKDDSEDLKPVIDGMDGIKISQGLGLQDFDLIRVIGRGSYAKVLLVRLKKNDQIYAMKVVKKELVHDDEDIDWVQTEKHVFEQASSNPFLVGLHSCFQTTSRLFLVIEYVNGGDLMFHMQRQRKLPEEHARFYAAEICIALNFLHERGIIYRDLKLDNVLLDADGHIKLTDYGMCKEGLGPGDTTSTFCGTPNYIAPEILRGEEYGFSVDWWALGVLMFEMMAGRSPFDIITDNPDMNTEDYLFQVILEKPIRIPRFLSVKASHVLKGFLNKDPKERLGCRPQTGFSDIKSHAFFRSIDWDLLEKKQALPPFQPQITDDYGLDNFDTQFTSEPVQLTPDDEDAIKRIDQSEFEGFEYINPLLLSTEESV

PKR = target: T9, PKR (Homo sapiens, UniProt P19525); assay: as above; assay type: biochemical; settings: 1 µmol/L of BTK inhibitor
T9 construct: purchased Carna Biosciences

SGK = target: T10, SGK (Homo sapiens, UniProt O00141); assay: as above; assay type: biochemical; settings: 1 µmol/L of BTK inhibitor
T10 construct: purchased Carna Biosciences
T10 sequence (O00141 1-431): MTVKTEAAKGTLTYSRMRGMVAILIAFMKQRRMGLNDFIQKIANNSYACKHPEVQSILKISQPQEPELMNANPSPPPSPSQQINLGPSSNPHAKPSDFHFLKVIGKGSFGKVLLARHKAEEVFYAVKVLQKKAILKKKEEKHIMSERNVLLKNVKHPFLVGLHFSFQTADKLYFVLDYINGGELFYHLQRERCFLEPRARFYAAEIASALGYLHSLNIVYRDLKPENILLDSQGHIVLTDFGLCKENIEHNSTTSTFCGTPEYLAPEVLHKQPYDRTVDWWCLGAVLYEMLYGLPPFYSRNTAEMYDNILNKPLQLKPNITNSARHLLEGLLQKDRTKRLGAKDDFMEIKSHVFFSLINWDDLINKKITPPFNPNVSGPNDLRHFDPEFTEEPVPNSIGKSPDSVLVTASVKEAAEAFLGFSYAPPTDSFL

SGK3 = target: T11, SGK3 (Homo sapiens, UniProt Q96BR1); assay: as above; assay type: biochemical; settings: 1 µmol/L of BTK inhibitor
T11 construct: purchased Carna Biosciences
T11 sequence (Q96BR1 1-496): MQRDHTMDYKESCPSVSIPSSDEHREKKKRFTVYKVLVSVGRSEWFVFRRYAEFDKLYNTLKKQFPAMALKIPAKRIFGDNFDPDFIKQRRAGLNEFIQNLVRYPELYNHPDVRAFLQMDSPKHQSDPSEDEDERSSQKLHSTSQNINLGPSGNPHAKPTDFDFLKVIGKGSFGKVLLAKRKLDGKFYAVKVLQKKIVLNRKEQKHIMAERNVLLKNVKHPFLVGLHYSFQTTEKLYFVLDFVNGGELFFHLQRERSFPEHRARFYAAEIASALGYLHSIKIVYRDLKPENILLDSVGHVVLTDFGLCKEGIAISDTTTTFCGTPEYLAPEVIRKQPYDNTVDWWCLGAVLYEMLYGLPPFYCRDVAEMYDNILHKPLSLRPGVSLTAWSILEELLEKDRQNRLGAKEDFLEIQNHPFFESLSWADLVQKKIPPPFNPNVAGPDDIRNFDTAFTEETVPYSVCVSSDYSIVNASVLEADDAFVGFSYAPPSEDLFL

ERK1 = ERK1 (Homo sapiens, UniProt P27361); assay: Kinase enzyme activity assay (mobility shift assay, Carna); settings: for Percentage inhibition of kinase enzyme activity: Erk1, 1 µmol/L of BTK inhibitor
ERK1, sequence (P27361 whole entry): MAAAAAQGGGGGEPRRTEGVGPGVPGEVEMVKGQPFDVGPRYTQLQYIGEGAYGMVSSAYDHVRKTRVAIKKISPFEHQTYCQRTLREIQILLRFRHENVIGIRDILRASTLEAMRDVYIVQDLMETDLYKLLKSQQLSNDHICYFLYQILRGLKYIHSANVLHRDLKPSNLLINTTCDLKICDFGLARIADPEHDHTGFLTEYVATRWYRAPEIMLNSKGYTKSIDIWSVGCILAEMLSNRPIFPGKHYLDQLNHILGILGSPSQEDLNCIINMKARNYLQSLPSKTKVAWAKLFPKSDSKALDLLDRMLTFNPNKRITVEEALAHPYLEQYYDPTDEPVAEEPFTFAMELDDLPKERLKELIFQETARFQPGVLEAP

T9 sequence (P19525 whole entry): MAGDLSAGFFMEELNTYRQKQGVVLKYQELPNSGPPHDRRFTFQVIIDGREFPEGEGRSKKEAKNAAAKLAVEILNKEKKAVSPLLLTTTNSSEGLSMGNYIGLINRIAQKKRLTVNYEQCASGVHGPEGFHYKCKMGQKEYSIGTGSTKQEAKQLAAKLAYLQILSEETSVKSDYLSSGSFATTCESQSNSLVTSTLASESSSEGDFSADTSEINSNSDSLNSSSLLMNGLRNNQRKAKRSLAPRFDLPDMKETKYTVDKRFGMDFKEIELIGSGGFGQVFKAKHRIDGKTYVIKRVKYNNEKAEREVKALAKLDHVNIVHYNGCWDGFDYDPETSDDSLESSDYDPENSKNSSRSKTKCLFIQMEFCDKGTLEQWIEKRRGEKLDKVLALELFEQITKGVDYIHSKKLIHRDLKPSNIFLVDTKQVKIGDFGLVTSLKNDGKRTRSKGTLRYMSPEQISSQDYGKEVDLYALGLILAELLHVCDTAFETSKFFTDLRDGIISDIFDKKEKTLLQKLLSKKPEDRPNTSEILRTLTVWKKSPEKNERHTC
T7 sequence (Q9P1W9 whole entry): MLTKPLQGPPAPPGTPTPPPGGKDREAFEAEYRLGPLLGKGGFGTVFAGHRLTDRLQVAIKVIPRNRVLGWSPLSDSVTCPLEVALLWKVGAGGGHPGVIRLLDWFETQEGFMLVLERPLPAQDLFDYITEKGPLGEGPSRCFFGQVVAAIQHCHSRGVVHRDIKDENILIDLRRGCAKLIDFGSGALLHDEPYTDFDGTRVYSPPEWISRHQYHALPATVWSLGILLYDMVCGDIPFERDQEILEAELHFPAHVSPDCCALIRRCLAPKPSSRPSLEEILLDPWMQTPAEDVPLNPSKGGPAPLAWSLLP
T6 sequence (Q9Y2H1 whole entry): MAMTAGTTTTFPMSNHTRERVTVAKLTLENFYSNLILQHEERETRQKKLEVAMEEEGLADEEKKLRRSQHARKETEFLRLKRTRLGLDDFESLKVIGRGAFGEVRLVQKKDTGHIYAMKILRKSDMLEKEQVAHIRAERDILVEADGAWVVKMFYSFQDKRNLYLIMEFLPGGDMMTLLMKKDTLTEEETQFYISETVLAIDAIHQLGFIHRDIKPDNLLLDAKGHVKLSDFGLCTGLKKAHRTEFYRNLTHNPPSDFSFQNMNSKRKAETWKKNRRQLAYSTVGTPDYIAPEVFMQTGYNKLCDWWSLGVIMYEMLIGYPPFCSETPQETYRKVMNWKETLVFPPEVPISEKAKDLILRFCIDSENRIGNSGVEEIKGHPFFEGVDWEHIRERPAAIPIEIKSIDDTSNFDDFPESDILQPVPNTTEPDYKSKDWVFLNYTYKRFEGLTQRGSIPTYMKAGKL
T3 sequence (Q9UQM7 whole entry): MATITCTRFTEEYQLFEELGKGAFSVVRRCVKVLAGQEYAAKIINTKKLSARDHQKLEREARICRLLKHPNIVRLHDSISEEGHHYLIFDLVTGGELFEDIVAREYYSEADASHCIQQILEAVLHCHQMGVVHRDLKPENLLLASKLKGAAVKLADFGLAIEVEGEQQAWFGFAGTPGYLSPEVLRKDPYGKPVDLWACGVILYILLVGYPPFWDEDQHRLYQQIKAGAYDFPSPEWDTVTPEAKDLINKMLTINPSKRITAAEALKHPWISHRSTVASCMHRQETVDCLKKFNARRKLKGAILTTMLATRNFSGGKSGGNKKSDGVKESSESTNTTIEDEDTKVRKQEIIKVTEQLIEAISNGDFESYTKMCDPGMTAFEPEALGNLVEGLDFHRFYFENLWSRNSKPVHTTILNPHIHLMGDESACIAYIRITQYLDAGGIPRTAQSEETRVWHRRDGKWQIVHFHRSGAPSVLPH
T2 sequence (Q15375 28-998): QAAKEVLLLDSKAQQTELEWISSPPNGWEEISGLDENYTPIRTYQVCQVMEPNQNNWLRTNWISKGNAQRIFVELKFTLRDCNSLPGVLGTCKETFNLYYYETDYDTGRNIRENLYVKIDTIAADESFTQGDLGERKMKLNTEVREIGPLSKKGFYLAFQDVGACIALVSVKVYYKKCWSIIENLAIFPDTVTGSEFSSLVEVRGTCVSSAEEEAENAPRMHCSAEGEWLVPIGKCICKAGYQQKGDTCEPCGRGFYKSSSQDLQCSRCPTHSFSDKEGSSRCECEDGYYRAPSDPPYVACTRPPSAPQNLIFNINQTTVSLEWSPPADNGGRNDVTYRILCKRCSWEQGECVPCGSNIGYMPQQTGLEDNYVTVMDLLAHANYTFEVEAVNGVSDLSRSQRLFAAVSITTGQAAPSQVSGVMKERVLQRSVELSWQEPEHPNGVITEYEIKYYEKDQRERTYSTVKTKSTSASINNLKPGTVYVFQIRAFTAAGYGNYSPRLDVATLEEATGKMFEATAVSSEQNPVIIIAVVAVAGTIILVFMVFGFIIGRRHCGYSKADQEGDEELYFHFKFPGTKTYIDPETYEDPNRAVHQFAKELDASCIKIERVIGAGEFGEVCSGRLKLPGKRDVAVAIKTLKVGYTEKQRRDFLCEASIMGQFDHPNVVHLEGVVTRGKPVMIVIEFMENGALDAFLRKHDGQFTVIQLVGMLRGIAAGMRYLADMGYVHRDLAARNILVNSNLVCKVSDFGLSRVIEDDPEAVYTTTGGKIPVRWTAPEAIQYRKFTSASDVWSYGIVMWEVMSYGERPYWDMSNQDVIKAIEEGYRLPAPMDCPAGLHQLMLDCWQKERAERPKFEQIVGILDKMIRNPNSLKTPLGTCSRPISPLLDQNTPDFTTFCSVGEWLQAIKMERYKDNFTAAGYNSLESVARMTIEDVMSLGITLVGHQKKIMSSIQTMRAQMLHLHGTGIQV
T4 sequence (P48729 whole entry): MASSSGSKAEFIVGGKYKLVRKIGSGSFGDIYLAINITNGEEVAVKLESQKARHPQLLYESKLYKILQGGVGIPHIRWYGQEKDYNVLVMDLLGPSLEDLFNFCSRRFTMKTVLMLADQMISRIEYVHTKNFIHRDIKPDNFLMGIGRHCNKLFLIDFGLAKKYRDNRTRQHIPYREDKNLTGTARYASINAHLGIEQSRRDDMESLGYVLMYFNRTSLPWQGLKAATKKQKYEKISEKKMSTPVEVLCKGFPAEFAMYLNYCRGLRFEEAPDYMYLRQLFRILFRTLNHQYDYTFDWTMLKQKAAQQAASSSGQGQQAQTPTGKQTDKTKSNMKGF

Row | SMILES | Percentage inhibition of kinase enzyme activity (AXL) | Percentage inhibition of kinase enzyme activity (EPHA7) | Percentage inhibition of kinase enzyme activity (CaMK2α) | Percentage inhibition of kinase enzyme activity (CK1α) | Percentage inhibition of kinase enzyme activity (DYRK1A) | Percentage inhibition of kinase enzyme activity (NDR2) | Percentage inhibition of kinase enzyme activity (PIM2) | Percentage inhibition of kinase enzyme activity (PKCζ) | Percentage inhibition of kinase enzyme activity (PKR) | Percentage inhibition of kinase enzyme activity (SGK) | Percentage inhibition of kinase enzyme activity (SGK3) | IC50 (ERK1) | Inhibition of ERK1 (ERK1) | Percentage inhibition of kinase enzyme activity (ERK1)
1 | O=C(c1ccc(Oc2ccccc2)cc1Cl)c1c[nH]c2ncnc(N[C@@H]3CC[C@@H](CO)OC3)c12 [nemtabrutinib] | 84.52% | 94.05% | 2.91% | 33.46% | -2.18% | -0.25% | -5.51% | -0.78% | 29.57% | 1.16% | -3.28% | 543 nM | did not inhibit | 61.74%
2 | CC#CC(=O)N1CCC[C@H]1c1nc(-c2ccc(C(=O)Nc3ccccn3)cc2)c2c(N)nccn12 [acalabrutinib] | -0.46% | -3.54% | -3.43% | 10.47% | -4.57% | -6.41% | -16.50% | -5.44% | 7.19% | -5.11% | -11.85% |  |  | -2.38%
3 | COc1ccc(F)cc1C(=O)NCc1ccc(-c2nn([C@@H](C)C(F)(F)F)c(N)c2C(N)=O)cc1 [pirtobrutinib] | -1.48% | -9.86% | -0.99% | 9.63% | -2.78% | -4.16% | -1.91% | -3.38% | 7.39% | 3.55% | -2.68% |  |  | -1.16%
4 | C=CC(=O)N1CCC([C@@H]2CCNc3c(C(N)=O)c(-c4ccc(Oc5ccccc5)cc4)nn32)CC1 [zanubrutinib] |  | -7.84% |  |  |  | 0.50% |  |  |  | -0.67% |  |  |  | 
5 | C=CC(=O)N1CCC[C@@H](n2nc(-c3ccc(Oc4ccccc4)cc3)c3c(N)ncnc32)C1 [ibrutinib] | 8.97% | 6.99% | -1.35% | -1.93% | -3.54% | 3.47% | -5.09% | 10.28% | 5.63% | -21.37% | 0.58% |  |  | 1.74%
